Measurements: patent US12534456B2, “Heterocyclyl pyridines as novel fungicides” (Bayer Aktiengesellschaft, priority 2020, dated 2026)
Where two headings read alike, the source gives them in different places.

Legend:
[1] = system: Colletotrichum lindemuthianum; test: Colletotrichum lindemuthianum in vitro cell test; assay type: cell-based; details: 144 h, 20 ppm of active ingredient, liquid culture with spores, 6 days incubation, spectrometric measurement of mycelium growth, read-out: efficacy (inhibition of fungal growth)
Experimental: (§1) B-7. Colletotrichum lindemuthianum In Vitro Cell Test • Solvent: DMSO • Culture medium: 14.6 g anhydrous D-glucose (VWR), 7.1 g Mycological Peptone (Oxoid), 1.4 g granulated Yeast Extract (Merck), QSP 1 liter • Inoculum: spores suspension • Fungicides were solubilized in DMSO and the solution used to prepare the required range of concentrations. […] A spore suspension of C. lindemuthianum was prepared and diluted to the desired spore density. Fungicides were evaluated for their ability to inhibit spores germination and mycelium growth in liquid culture assay. The compounds were added in the desired concentration to the culture medium with spores. After 6 days incubation, fungi-toxicity of compounds was determined by spectrometric measurement of mycelium growth. Inhibition of fungal growth was determined by comparing the absorbance values in wells containing the fungicides with the absorbance in control wells without fungicides.

[2] = physchem; assay type: physicochemical; details: Table 1, compounds of formula (I); method [a]: LC-UV, acidic range, 0.1% formic acid in water and acetonitrile
Experimental: Measurement of Log P values as provided herein was performed according to EEC directive 79/831 Annex V.A8 by HPLC (High Performance Liquid Chromatography) on reversed phase columns with the following methods: • ^[a]
If more than one Log P value is available within the same method, all the values are given and separated by “+”.
Lambda-max-values were determined using UV-spectra from 200 nm to 400 nm and the peak values of the chromatographic signals

[3] = system: Alternaria alternata; test: Alternaria alternata in vitro cell test; assay type: cell-based; details: 120 h, 20 ppm of active ingredient, liquid culture with spores, 5 days incubation, spectrometric measurement of mycelium growth, read-out: efficacy (inhibition of fungal growth)
Experimental: as §1, with “B-5. Alternaria alternata In” for “B-7. Colletotrichum lindemuthianum In”, “of A. alternata” for “of C. lindemuthianum”, “inhibit spore” for “inhibit spores”, “After 5” for “After 6”

[4] = system: Pyricularia oryzae; test: microbe, parasite or virus in culture; assay type: cell-based; details: 120 h, read-out: efficacy (inhibition of fungal growth)
[5] = system: Septoria tritici; test: Septoria tritici in vitro cell test; assay type: cell-based; details: Zymoseptoria tritici, 168 h; 20 ppm of active ingredient; liquid culture with spores, 7 days incubation, spectrometric measurement of mycelium growth; read-out: efficacy (inhibition of fungal growth)
Experimental: B-8. Septoria tritici In Vitro Cell Test • Solvent: DMSO • Culture medium: 1 g KH2PO4 (VWR), 1 g K2HPO4 (VWR), 0.5 g Urea (VWR), 3 g KNO3 (Prolabo), 10 g saccharose (VWR), 0.5 g MgSO4, 7H2O (Sigma), 0.07 g CaCl2, 2H2O (Prolabo), 0.2 mg MnSO4, H2O (Sigma), 0.6 mg CuSO4, 5H2O (Sigma), 7.9 mg ZnSO4, 7H2O (Sigma), 0.1 mg H3BO3 (Merck), 0.14 mg NaMoO4, 2H2O (Sigma), 2 mg thiamine (Sigma), 0.1 mg biotine (VWR), 4 mg FeSO4, 7H2O (Sigma), QSP 1 liter • Inoculum: spore suspension Fungicides were solubilized in DMSO and the solution used to prepare the required range of concentrations. […] A spore suspension of S. tritici was prepared and diluted to the desired spore density. Fungicides were evaluated for their ability to inhibit spore germination and mycelium growth in liquid culture assay. The compounds were added in the desired concentration to the culture medium with spores. […] Inhibition of fungal growth was determined by comparing the absorbance values in wells containing the fungicides with the absorbance in control wells without fungicides.

[6] = system: Fusarium culmorum; test: Fusarium culmorum in vitro cell test; assay type: cell-based; details: 96 h, read-out: efficacy (inhibition of fungal growth)
Experimental: B-9. Fusarium culmorum In Vitro Cell Test
• Solvent: DMSO • Culture medium: 14.6 g anhydrous D-glucose (VWR), 7.1 g Mycological Peptone (Oxoid), 1.4 g granulated Yeast Extract (Merck), QSP 1 liter • Inoculum: spore suspension
Fungicides were solubilized in DMSO and the solution used to prepare the required range of concentrations. The final concentration of DMSO used in the assay was ≤1%.
A spore suspension of F. culmorum was prepared and diluted to the desired spore density.
Fungicides were evaluated for their ability to inhibit spore germination and mycelium growth in liquid culture assay. The compounds were added in the desired concentration to the culture medium with spores. After 4 days incubation, fungi-toxicity of compounds was determined by spectrometric measurement of mycelium growth. Inhibition of fungal growth was determined by comparing the absorbance values in wells containing the fungicides with the absorbance in control wells without fungicides.

[7] = 20 ppm of active ingredient, liquid culture with spores, 4 days incubation, spectrometric measurement of mycelium growth

SMILES	inhibition at 20 ppm [1] [%]	chromatographic logP [2]	inhibition at 20 ppm [3] [%]	inhibition at 20 ppm [4] [%]	inhibition at 20 ppm [5] [%]	inhibition at 20 ppm [6] [%]	inhibition at 20 ppm [6, 7] [%]
Cc1ccc(C2CON=C(c3cc(Cl)ncc3Oc3cccc(C(F)(F)F)c3)N2)s1 (racemic) [Compound I-097, rac-(5S)-3-[2-chloro-5-[3-(trifluoromethyl)phenoxy]-4-pyridyl]-5-(5-methyl-2-thienyl)-5,6-dihydro-4H-1,2,4-oxadiazine]	90 to 100	3.87	90 to 100	70 to 79	90 to 100	90 to 100	
COc1ccc(C2NC(c3cc(Cl)ncc3Oc3cccc(C(F)(F)F)c3)=NOC2(F)F)cc1 (racemic) [Compound I-047, (5RS)-3-{2-chloro-5-[3-(trifluoromethyl)phenoxy]pyridin-4-yl}-6,6-difluoro-5-(4-methoxyphenyl)-5,6-dihydro-4H-1,2,4-oxadiazine]	90 to 100	4.14	90 to 100	90 to 100	90 to 100		80 to 89
Cc1ccc(CC2CON=C(c3cc(C(F)(F)F)ncc3Oc3cccc(C(F)(F)F)c3)N2)c(C)c1 (racemic) [Compound I-034, (5RS)-5-(2,4-dimethylbenzyl)-3-{2-(trifluoromethyl)-5-[3-(trifluoromethyl)phenoxy]pyridin-4-yl}-5,6-dihydro-4H-1,2,4-oxadiazine]	90 to 100	4.89	90 to 100	90 to 100	90 to 100		70 to 79
